From patent publication US20240415914A1, “Water Dispersible Cannabinoid Compositions” (priority 2021, published 2024)

Experiment: Stability of cannabinoid and Vitamin E components of Beverage 1 (AB White) stored at 8° C. and 21-25° C., LCMSMS over 570 days
Format: physicochemical
Details: for Stability in AB White, 8° C. (content by LCMSMS): beverage stored at 8° C.; for Stability in AB White, 21-25° C. (content by LCMSMS): beverage stored at 21-25° C.
Experimental: The LCMSMS was calibrated for 0-1000 ng/ml cannabinoids with the same resin material used in the preparation of the concentrates. At each time period, 100 ml of beverage was diluted with 10 ml of methanol and injected into the LCMSMS for analysis.

SMILES: C=C(C)[C@@H]1CCC(C)=C[C@H]1c1c(O)cc(CCC)cc1O [CBDV, cannabidivarin]
- Stability in AB White, 8° C. (content by LCMSMS) (day 0): 0.150 µg/mL
- Stability in AB White, 8° C. (content by LCMSMS) (day 1): 0.146 µg/mL
- Stability in AB White, 8° C. (content by LCMSMS) (day 2): 0.147 µg/mL
- Stability in AB White, 8° C. (content by LCMSMS) (day 3): 0.146 µg/mL
- Stability in AB White, 8° C. (content by LCMSMS) (day 5): 0.147 µg/mL
- Stability in AB White, 8° C. (content by LCMSMS) (day 8): 0.148 µg/mL
- Stability in AB White, 8° C. (content by LCMSMS) (day 9): 0.146 µg/mL
- Stability in AB White, 8° C. (content by LCMSMS) (day 10): 0.148 µg/mL
- Stability in AB White, 8° C. (content by LCMSMS) (day 11): 0.150 µg/mL
- Stability in AB White, 8° C. (content by LCMSMS) (day 12): 0.150 µg/mL
- Stability in AB White, 8° C. (content by LCMSMS) (day 15): 0.150 µg/mL
- Stability in AB White, 8° C. (content by LCMSMS) (day 16): 0.148 µg/mL
- Stability in AB White, 8° C. (content by LCMSMS) (day 17): 0.146 µg/mL
- Stability in AB White, 8° C. (content by LCMSMS) (day 18): 0.146 µg/mL
- Stability in AB White, 8° C. (content by LCMSMS) (day 19): 0.149 µg/mL
- Stability in AB White, 8° C. (content by LCMSMS) (day 22): 0.149 µg/mL
- Stability in AB White, 8° C. (content by LCMSMS) (day 23): 0.149 µg/mL
- Stability in AB White, 8° C. (content by LCMSMS) (day 24): 0.147 µg/mL
- Stability in AB White, 8° C. (content by LCMSMS) (day 25): 0.149 µg/mL
- Stability in AB White, 8° C. (content by LCMSMS) (day 26): 0.152 µg/mL
- Stability in AB White, 8° C. (content by LCMSMS) (day 29): 0.151 µg/mL
- Stability in AB White, 8° C. (content by LCMSMS) (day 30): 0.148 µg/mL
- Stability in AB White, 8° C. (content by LCMSMS) (day 60): 0.143 µg/mL
- Stability in AB White, 8° C. (content by LCMSMS) (day 90): 0.146 µg/mL
- Stability in AB White, 8° C. (content by LCMSMS) (day 120): 0.144 µg/mL
- Stability in AB White, 8° C. (content by LCMSMS) (day 150): 0.150 µg/mL
- Stability in AB White, 8° C. (content by LCMSMS) (day 180): 0.150 µg/mL
- Stability in AB White, 8° C. (content by LCMSMS) (day 210): 0.147 µg/mL
- Stability in AB White, 8° C. (content by LCMSMS) (day 240): 0.145 µg/mL
- Stability in AB White, 8° C. (content by LCMSMS) (day 270): 0.143 µg/mL
- Stability in AB White, 8° C. (content by LCMSMS) (day 300): 0.143 µg/mL
- Stability in AB White, 8° C. (content by LCMSMS) (day 330): 0.146 µg/mL
- Stability in AB White, 8° C. (content by LCMSMS) (day 360): 0.145 µg/mL
- Stability in AB White, 8° C. (content by LCMSMS) (day 390): 0.143 µg/mL
- Stability in AB White, 8° C. (content by LCMSMS) (day 420): 0.144 µg/mL
- Stability in AB White, 8° C. (content by LCMSMS) (day 450): 0.145 µg/mL
- Stability in AB White, 8° C. (content by LCMSMS) (day 480): 0.143 µg/mL
- Stability in AB White, 8° C. (content by LCMSMS) (day 510): 0.138 µg/mL
- Stability in AB White, 8° C. (content by LCMSMS) (day 540): 0.139 µg/mL
- Stability in AB White, 8° C. (content by LCMSMS) (day 570): 0.138 µg/mL
- Stability in AB White, 21-25° C. (content by LCMSMS) (day 0): 0.150 µg/mL
- Stability in AB White, 21-25° C. (content by LCMSMS) (day 1): 0.149 µg/mL
- Stability in AB White, 21-25° C. (content by LCMSMS) (day 2): 0.148 µg/mL
- Stability in AB White, 21-25° C. (content by LCMSMS) (day 3): 0.149 µg/mL
- Stability in AB White, 21-25° C. (content by LCMSMS) (day 5): 0.144 µg/mL
- Stability in AB White, 21-25° C. (content by LCMSMS) (day 8): 0.145 µg/mL
- Stability in AB White, 21-25° C. (content by LCMSMS) (day 9): 0.148 µg/mL
- Stability in AB White, 21-25° C. (content by LCMSMS) (day 10): 0.147 µg/mL
- Stability in AB White, 21-25° C. (content by LCMSMS) (day 11): 0.150 µg/mL
- Stability in AB White, 21-25° C. (content by LCMSMS) (day 12): 0.152 µg/mL
- Stability in AB White, 21-25° C. (content by LCMSMS) (day 15): 0.151 µg/mL
- Stability in AB White, 21-25° C. (content by LCMSMS) (day 16): 0.145 µg/mL
- Stability in AB White, 21-25° C. (content by LCMSMS) (day 17): 0.150 µg/mL
- Stability in AB White, 21-25° C. (content by LCMSMS) (day 18): 0.151 µg/mL
- Stability in AB White, 21-25° C. (content by LCMSMS) (day 19): 0.148 µg/mL
- Stability in AB White, 21-25° C. (content by LCMSMS) (day 22): 0.148 µg/mL
- Stability in AB White, 21-25° C. (content by LCMSMS) (day 23): 0.148 µg/mL
- Stability in AB White, 21-25° C. (content by LCMSMS) (day 24): 0.145 µg/mL
- Stability in AB White, 21-25° C. (content by LCMSMS) (day 25): 0.145 µg/mL
- Stability in AB White, 21-25° C. (content by LCMSMS) (day 26): 0.149 µg/mL
- Stability in AB White, 21-25° C. (content by LCMSMS) (day 29): 0.147 µg/mL
- Stability in AB White, 21-25° C. (content by LCMSMS) (day 30): 0.151 µg/mL
- Stability in AB White, 21-25° C. (content by LCMSMS) (day 60): 0.149 µg/mL
- Stability in AB White, 21-25° C. (content by LCMSMS) (day 90): 0.143 µg/mL
- Stability in AB White, 21-25° C. (content by LCMSMS) (day 120): 0.141 µg/mL
- Stability in AB White, 21-25° C. (content by LCMSMS) (day 150): 0.146 µg/mL
- Stability in AB White, 21-25° C. (content by LCMSMS) (day 180): 0.141 µg/mL
- Stability in AB White, 21-25° C. (content by LCMSMS) (day 210): 0.142 µg/mL
- Stability in AB White, 21-25° C. (content by LCMSMS) (day 240): 0.145 µg/mL
- Stability in AB White, 21-25° C. (content by LCMSMS) (day 270): 0.148 µg/mL
- Stability in AB White, 21-25° C. (content by LCMSMS) (day 300): 0.142 µg/mL
- Stability in AB White, 21-25° C. (content by LCMSMS) (day 330): 0.144 µg/mL
- Stability in AB White, 21-25° C. (content by LCMSMS) (day 360): 0.146 µg/mL
- Stability in AB White, 21-25° C. (content by LCMSMS) (day 390): 0.146 µg/mL
- Stability in AB White, 21-25° C. (content by LCMSMS) (day 420): 0.143 µg/mL
- Stability in AB White, 21-25° C. (content by LCMSMS) (day 450): 0.144 µg/mL
- Stability in AB White, 21-25° C. (content by LCMSMS) (day 480): 0.143 µg/mL
- Stability in AB White, 21-25° C. (content by LCMSMS) (day 510): 0.139 µg/mL
- Stability in AB White, 21-25° C. (content by LCMSMS) (day 540): 0.140 µg/mL
- Stability in AB White, 21-25° C. (content by LCMSMS) (day 570): 0.138 µg/mL
